{"source": "patent US8993527B2", "about": "“Methods, compositions, and formulations for preventing or reducing adverse effects in a patient” (Pericor Therapeutics, Inc., priority 2005, dated 2015)", "key": {"[1]": {"system": "patients undergoing CABG surgery", "test": "Phase 2 CABG trial: myocardial ischemia by Holter ECG and TEE", "type": "in vivo, human", "conditions": "for Isch min/h monitored: postbypass, listed as AICA riboside", "method": "The evaluation of Holter tapes and echo videotapes was performed centrally by two independent blinded observers; if there was disagreement between the two, a third observer was used to “break the tie.” The same observers were used throughout the study. 5. Ischemic Events-TEE. Ischemic event data were evaluated during two time periods-pre-bypass and post-bypass, using the following analysis: a) The number of patients with ischemic events was compared across the groups using Fisher's exact test. This analysis also included pre-post changes and pre- and post-combined. b) For patients with events, analysis of the mean duration and severity of ischemia was done. […] For severity (an ordinary variable, 0-4 scale) and number of events, the nonparametric test was used. […] 6. Ischemic Events-ECG. The analysis of ischemic events indicated by ECG was done using the same methods as the echo events. The time periods analyzed were: (a) baseline (Holter start to infusion start), (b) pre-bypass (infusion start to bypass start), (c) post-bypass ([…] off to infusion end), and (d) post-treatment (infusion end to Holter end). For patients with events, the following variables were analyzed: mean duration, maximum ST change and area under the curve of significant ST segment deviation. Analysis of variance (ANOVA) was used. 3. Myocardial Ischemia. Myocardial ischemia was measured with continuous Holter ECG and TEE. […] ECG episodes of ischemia were defined as reversible S-T depression 1 mm or greater lasting 1 minute or longer. TEE data were recorded continuously during surgery at the level of the mid-papillary muscles of the left ventricle. The wall motion of each of the four segments was graded from 0-4 (normal to […] ischemia was defined by regional wall motion worsening at least 2 grades and lasting 1 minute or longer."}, "[2]": {"system": "patients undergoing CABG surgery", "type": "in vivo", "conditions": "0.05 mg/kg/min"}, "[3]": {"biological_target": "T1, calf intestinal musosa adenosine deaminase (Bos taurus, UniProt P56658)", "T1 construct": "0.002 units of calf intestinal musosa adenosine deaminase; from tissue; host or cells: calf intestinal mucosa", "test": "Adenosine deaminase activity", "type": "biochemical", "conditions": "80 μM adenosine, 10 minutes at 37° C.", "method": "Different concentrations of the test compounds were incubated in the assay mixture for 10 minutes at 37° C. The reaction was monitored continuously for oxidation of NADH from the change in absorbance at 340 nm."}, "[4]": {"system": "patients undergoing CABG surgery", "test": "Phase 2 CABG trial: difficulty in weaning from bypass", "type": "in vivo, human", "conditions": "for WEANING TIME: Pts without Difficulty", "method": "During surgery, anesthesia was maintained by continuous infusion of fentanyl and midazolam. Routine clinical parameters were recorded using standard operating room monitoring equipment. Continuous 2-lead Holter ECG and TEE data were recorded. Standard surgical procedures (e.g., aorta cross-clamping, crystalloid cardioplegia, cardiopulmonary bypass, hypothermia) were used. Anastomoses were constructed, aorta cross-clamp removed and patients were discontinued from bypass when body temperature was 37° C. The quality of anastomosis was judged by the surgeon. Difficulty in weaning from bypass was judged by need for one or more of the following: pacemaker, return to bypass, balloon pump or vasopressor administration. Hemodynamic measurements, including heart rate, arterial blood pressure, pulmonary capillary wedge pressure and cardiac output, were recorded before stemotomy, 15 and 30 min after bypass and upon chest closure. Radial artery and pulmonary artery pressures, myocardial and whole body temperature, O2 saturation, end-tidal CO2 and arterial blood gases were measured, and ECG recordings were obtained as clinically indicated. Hemodynamic variables (blood pressure, heart rate, pulmonary capillary wedge pressure) were controlled within 20% of baseline using prescribed regimens.\nThe incidence of adverse clinical outcomes, such as cardiac death (death of patient attributable to primarily cardiac causes, non-fatal transmural MI (as measured by the appearance of a new Q-wave on 12-lead ECG plus a CK-MB value of ≧50 units), non-transmural MI (CK-MB value of ≧50 units), congestive heart failure (low cardiac output requiring intra-aortic balloon pump or left ventricular assist device) or life-threatening dysrhythmia (ventricular fibrillation, or ventricular tachycardia requiring cardioversion or drug treatment) was compared between the placebo and treatment groups. For the diagnosis of myocardial infarction, ECG tracings and CK-MB values were assessed centrally by observers blinded to treatment. The difficulty of weaning the patient from bypass, if any, was compared between placebo and treatment groups by noting need for one or more of the following: pacemaker, return to bypass, balloon pump or use of vasopressors.\n8. Difficulty in Weaning. Patients were considered to have difficulty in weaning if they needed one or more of the following interventions: pacemaker, return to bypass, balloon pump or use of vasopressors. The number of patients receiving each of the above interventions was analyzed using a X^2 and Fisher's exact test, as was the number of patients classified as having difficulty in weaning. In addition, the time to weaning (defined as time from cross-clamp removal to end of bypass) in the patients experiencing difficulty were compared by a 1-way analysis of variance.\nAs noted, patients were determined as being difficult to remove from cardiopulmonary bypass if they required one or more of the following interventions: insertion of a pacemaker, return to bypass, use of a balloon pump or administration of vasopressors, or another intervention which the investigation determines is indicative of difficulty in weaning. […] When a combination of the high and low dose groups were compared to placebo (Table 9b), the reduced need for vasopressor support approached statistical significance (p=0.08). […] There were no differences in any of the weaning difficulty parameters discussed above between the high and low dose groups (Table 9c)."}, "[5]": {"biological_target": "T2, purified pig heart adenosine kinase (Sus scrofa, UniProt A0A5G2R0F5)", "T2 construct": "0.1 μg of purified pig heart adenosine kinase; from tissue; host or cells: pig heart", "T2 sequence (A0A5G2R0F5 1-362)": "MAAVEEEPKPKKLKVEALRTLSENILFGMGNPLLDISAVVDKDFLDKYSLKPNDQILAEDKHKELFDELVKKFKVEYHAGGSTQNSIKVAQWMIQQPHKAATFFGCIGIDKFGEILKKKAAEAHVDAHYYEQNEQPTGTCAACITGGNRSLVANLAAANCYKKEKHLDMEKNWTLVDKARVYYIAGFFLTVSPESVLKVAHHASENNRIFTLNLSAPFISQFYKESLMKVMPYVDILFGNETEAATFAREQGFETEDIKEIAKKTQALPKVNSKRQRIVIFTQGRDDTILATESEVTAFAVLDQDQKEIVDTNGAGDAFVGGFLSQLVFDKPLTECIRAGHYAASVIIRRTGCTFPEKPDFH", "test": "Adenosine kinase activity", "type": "biochemical", "conditions": "0.5 μM [U14C] adenosine, 1 mM ATP, 20 minutes at 37° C.", "method": "Inhibition of enzyme activity was determined using a 0.1 ml assay mixture containing 50 mM Tris-maleate, pH 7.0, 0.1% (w/v) BSA, 1 mM ATP, 1 mM MgCl2, 0.5 μM [U^14 C] adenosine (500 mCi/mmol) and 0.1 μg of purified pig heart adenosine kinase. Different concentrations of test compound were incubated in the assay mixture for 20 minutes at 37° C. From each reaction mixture, 20 μl portions were removed and spotted on 2^2 pieces of Whatman DE81 filter paper. The papers were then washed to remove [^14 C] adenosine in 1 mM ammonium formate followed by deionized water and finally 95% ethanol. The papers were dried, and [^14C] AMP measured by scintillation counting. Activities were determined from the amount of [^14C] AMP formed."}, "mast cells": {"system": "mast cells", "test": "AICA riboside: mast cell leukotriene C4 release", "type": "cell-based, mouse", "conditions": "100 μM pretreatment for six days"}}, "data": [{"smiles": "NC(=O)c1ncn([C@@H]2O[C@H](CO)[C@@H](O)[C@H]2O)c1N", "note": "[1 (1-110), 5-amino-1-β-D-ribofuranosyl-imidazole-4-carboxamide]", "values": [{"measurement": "Isch min/h monitored", "setting": "[1]; High Dose", "value": "27±20", "unit": "min/h"}, {"measurement": "Isch min/h monitored", "setting": "[1]; Low Dose", "value": "40±15", "unit": "min/h"}, {"measurement": "incidence of ECG ischemia, postbypass period", "setting": "[1]; high dose", "value": 11, "unit": "%"}, {"measurement": "incidence of ECG ischemia, prebypass period", "setting": "[1]; high dose", "value": 3, "unit": "%"}, {"measurement": "incidence of TEE ischemia, postbypass period", "setting": "[1]; high dose", "value": 24, "unit": "%"}, {"measurement": "incidence of TEE ischemia, prebypass period", "setting": "[1]; high dose", "value": 6, "unit": "%"}, {"measurement": "incidence of ECG ischemia, postbypass period", "setting": "[1]; low dose", "value": 22, "unit": "%"}, {"measurement": "incidence of ECG ischemia, prebypass period", "setting": "[1]; low dose", "value": 3, "unit": "%"}, {"measurement": "incidence of TEE ischemia, postbypass period", "setting": "[1]; low dose", "value": 27, "unit": "%"}, {"measurement": "incidence of TEE ischemia, prebypass period", "setting": "[1]; low dose", "value": 15, "unit": "%"}, {"measurement": "effect of low-dose acadesine on outcome", "setting": "[2]", "value": "no significant effect on any outcome measure"}, {"measurement": "IC50", "setting": "[3]", "value": "> 5", "unit": "mM"}, {"measurement": "WEANING TIME", "setting": "[4]; 0.05 mg/kg/min", "value": "20.4 +/− 2.5"}, {"measurement": "WEANING TIME", "setting": "[4]; 0.1 mg/kg/min", "value": "16.3 +/− 1.9"}, {"measurement": "PATIENTS WITH ANY DIFFICULTY WEANING", "setting": "[4]; 0.05 + 0.10, 76 patients", "value": "15 (19.7%)"}, {"measurement": "PATIENTS WITH ANY DIFFICULTY WEANING", "setting": "[4]; 0.05, 41 patients", "value": "7 (17%)"}, {"measurement": "PATIENTS WITH ANY DIFFICULTY WEANING", "setting": "[4]; 0.10, 35 patients", "value": "8 (23%)"}, {"measurement": "IC50", "setting": "[5]", "value": "> 5", "unit": "mM"}, {"measurement": "Leukotriene C4 release reduced by", "setting": "mast cells", "value": 75, "unit": "%"}]}]}
